Reference: patent US20230210999A1, “TARGETED PROTEASE DEGRADATION (TED) PLATFORM” (EUBULUS BIOTHERAPEUTICS INC., priority 2020, published 2023)
Like-named read-outs stand apart in the source and are kept apart here.

Experiments:
Format in all cases: cell-based, human
Daudi cells = experiment: Cell proliferation experiment, Daudi; conditions: Daudi cells, read-out: Inhibitory activity IC50 on Daudi
Experimental: (§1) Reagents: RPMI-1640 medium, McCoy's 5A medium, IMDM medium, MEM medium, L-15 medium, fetal bovine serum. Penicillin-Streptomycin double antibody, trypsin, etc., 2-mercaptoethanol, NEAA, pyruvate, etc.
(§2) The cells were cultured in conventional ways, and the cells should be passed at least 2 generations before plating. Cells at the logarithmic growth phase were collected, prepared into single cell suspensions and counted. The concentration of cells was adjusted to the desired concentration, and cells were inoculated into a 96-well cell culture plate at 100 μl per well. 100 μL of complete medium of the test compound were added to each well, set up 2 duplicate wells for each concentration, and diluted with a 5-fold gradient, and continued to culture for 72 h. All cells were subjected to IC50 test for corresponding samples. The experimental results are shown in Test Example 4.
(§3) The fluorescence intensity of each well was detected using the Alarm blue method, and IC50 was calculated.
(§4) IC50 was calculated according to the following formula:
(§5) Y=Max+(Min−Max)/[1+(X/IC50)×Slope]
(§6) wherein Min, Max and Slope represent the minimum, maximum and slope respectively.

NCIH82 cells = experiment: Cell proliferation experiment, NCI-H82; conditions: read-out: Inhibitory activity IC50 on NCI-H82
Experimental: as §1, §2, §3, §4, §5, §6

MV4;11 cells = experiment: Cell proliferation experiment (Alamar blue, 72 h), MV4;11; conditions: read-out: Inhibitory activity IC50 on MV4;11
Experimental: as §1, §2, §3, §4, §5, §6

[1] = Homo sapiens, NCI-H82, NCI-H82 cells
[2] = Homo sapiens, MV4-11, MV4;11 cells

IC50 (Daudi cells; Homo sapiens, Daudi)	IC50 (NCIH82 cells; [1])	IC50 (MV4;11 cells; [2])	IC50 (Daudi cells)	IC50 (NCIH82 cells; NCI-H82 cells)	IC50 (MV4;11 cells; MV4;11 cells)	Compound
0.1 to 1 µM	0.1 to 1 µM	0.01 to 0.1 µM	–	–	–	CCNC(=O)C#Cc1ccc2c(c1)NC(=O)/C2=C(\Nc1ccc(CNCCOCCOCCOCCC(=O)Nc2ccc3c(c2)CN(C2CCC(=O)NC2=O)C3=O)cc1)c1ccccc1 (stereo not drawn) [UB-180972]
> 1 µM	> 1 µM	> 1 µM	–	–	–	O=C1CCC(N2Cc3c(C#CCCOCCN[C@H]4CC[C@H](n5cc(-c6ccc(Nc7ncc8c(n7)-c7ccc(Cl)cc7C(c7c(F)cccc7F)=NC8)cc6)nn5)CC4)cccc3C2=O)C(=O)N1 (stereo partly drawn) [UB-180975]
0.1 to 1 µM	0.1 to 1 µM	0.01 to 0.1 µM	–	–	–	O=C1CCC(N2Cc3cc(NC(=O)CCCCCCCNCCn4cc(-c5ccc(Nc6ncc7c(n6)-c6ccc(Cl)cc6C(c6c(F)cccc6F)=NC7)cc5)nn4)ccc3C2=O)C(=O)N1 (stereo not drawn) [UB-180983]
> 1 µM	> 1 µM	0.1 to 1 µM	–	–	–	O=C1CCC(N2Cc3cc(NC(=O)CCNCCOCCOCCn4cc([C@]5(Cc6cccc(Nc7nccs7)n6)CC[C@@H](Oc6cccc(Cl)c6F)CC5)nn4)ccc3C2=O)C(=O)N1 (stereo partly drawn) [UB-180994]
> 1 µM	> 1 µM	> 1 µM	–	–	–	O=C1CCC(N2Cc3c(NC(=O)CCCCCCCCCN[C@H]4CC[C@@H](n5cc(-c6ccc(Nc7ncc8c(n7)-c7ccc(Cl)cc7C(c7c(F)cccc7F)=NC8)cc6)nn5)CC4)cccc3C2=O)C(=O)N1 (stereo partly drawn) [UB-180996]
> 1 µM	> 1 µM	> 1 µM	–	–	–	O=C1CCC(N2Cc3cc(NC(=O)CCNCCCOCCCCn4cc(-c5ccc(Nc6ncc7c(n6)-c6ccc(Cl)cc6C(c6c(F)cccc6F)=NC7)cc5)nn4)ccc3C2=O)C(=O)N1 (stereo not drawn) [UB-181000]
> 1 µM	> 1 µM	0.1 to 1 µM	–	–	–	O=C1CCC(N2Cc3c(NC(=O)CCNCCOCCOCCn4cc([C@]5(Cc6cccc(Nc7nccs7)n6)CC[C@@H](Oc6cccc(Cl)c6F)CC5)nn4)cccc3C2=O)C(=O)N1 (stereo partly drawn) [UB-181003]
0.1 to 1 µM	> 1 µM	0.1 to 1 µM	–	–	–	O=C1CCC(N2Cc3cc(NC(=O)CNCCCOCCCCCn4cc(-c5ccc(Nc6ncc7c(n6)-c6ccc(Cl)cc6C(c6c(F)cccc6F)=NC7)cc5)nn4)ccc3C2=O)C(=O)N1 (stereo not drawn) [UB-181008]
> 1 µM	> 1 µM	0.1 to 1 µM	–	–	–	O=C1CCC(N2Cc3cc(NC(=O)CNCCCOCCCCCn4cc([C@]5(Cc6cccc(Nc7nccs7)n6)CC[C@@H](Oc6cccc(Cl)c6F)CC5)nn4)ccc3C2=O)C(=O)N1 (stereo partly drawn) [UB-181009]
> 1 µM	> 1 µM	0.1 to 1 µM	–	–	–	O=C1CCC(N2Cc3cc(C#CCCOCCOCCOCCNC4CCC(n5cc(-c6ccc(Nc7ncc8c(n7)-c7ccc(Cl)cc7C(c7c(F)cccc7F)=NC8)cc6)nn5)CC4)ccc3C2=O)C(=O)N1 (stereo not drawn) [UB-181010]
0.01 to 0.1 µM	> 1 µM	0.1 to 1 µM	–	–	–	O=C1CCC(N2Cc3cc(NC(=O)CNCCCCOCCCCn4cc(-c5ccc(Nc6ncc7c(n6)-c6ccc(Cl)cc6C(c6c(F)cccc6F)=NC7)cc5)nn4)ccc3C2=O)C(=O)N1 (stereo not drawn) [UB-181011]
> 1 µM	> 1 µM	0.1 to 1 µM	–	–	–	O=C1CCC(N2Cc3c(NC(=O)CNCCCCOCCCCNC(=O)[C@]4(Cc5cccc(Nc6nccs6)n5)CC[C@@H](Oc5cccc(Cl)c5F)CC4)cccc3C2=O)C(=O)N1 (stereo partly drawn) [UB-181013]

More lines, now with the values behind:

Compound	IC50 (Daudi cells; Homo sapiens, Daudi)	IC50 (NCIH82 cells; [1])	IC50 (MV4;11 cells; [2])	IC50 (Daudi cells)	IC50 (NCIH82 cells; NCI-H82 cells)	IC50 (MV4;11 cells; MV4;11 cells)
CCNC(=O)C#Cc1ccc2c(c1)NC(=O)/C2=C(\Nc1ccc(CNCCOCCOCCOCCC(=O)N[C@H](C(=O)N2C[C@H](O)C[C@H]2C(=O)NCc2ccc(-c3scnc3C)cc2)C(C)(C)C)cc1)c1ccccc1 [UB-180970]	> 1 µM	> 1 µM	0.1 to 1 µM	–	–	–
CCNC(=O)C#Cc1ccc2c(c1)NC(=O)/C2=C(\Nc1ccc(CNCCOCCOCCOCCC(=O)Nc2cccc3c2CN(C2CCC(=O)NC2=O)C3=O)cc1)c1ccccc1 (stereo not drawn) [UB-180971]	> 1 µM	> 1 µM	0.1 to 1 µM	–	–	–
O=C1CCC(N2Cc3cc(C#CCCNCCOCCOCCOCCn4cc([C@]5(Cc6cccc(Nc7nccs7)n6)CC[C@@H](Oc6cccc(Cl)c6F)CC5)nn4)ccc3C2=O)C(=O)N1 (stereo partly drawn) [UB-180973]	> 1 µM	> 1 µM	0.1 to 1 µM	–	–	–
O=C1CCC(N2Cc3c(C#CCCNCCOCCOCCOCCn4cc(-c5ccc(Nc6ncc7c(n6)-c6ccc(Cl)cc6C(c6c(F)cccc6F)=NC7)cc5)nn4)cccc3C2=O)C(=O)N1 (stereo not drawn) [UB-180974]	> 1 µM	> 1 µM	0.1 to 1 µM	–	–	–
O=C1CCC(N2Cc3cc(NC(=O)CNCCOCCOCCOCCn4cc(-c5ccc(Nc6ncc7c(n6)-c6ccc(Cl)cc6C(c6c(F)cccc6F)=NC7)cc5)nn4)ccc3C2=O)C(=O)N1 (stereo not drawn) [UB-180976]	> 1 µM	> 1 µM	0.1 to 1 µM	–	–	–
O=C1CCC(N2Cc3cc(NC(=O)CCOCCOCCN[C@H]4CC[C@@H](n5cc(-c6ccc(Nc7ncc8c(n7)-c7ccc(Cl)cc7C(c7c(F)cccc7F)=NC8)cc6)nn5)CC4)ccc3C2=O)C(=O)N1 (stereo partly drawn) [UB-180981]	> 1 µM	> 1 µM	> 1 µM	–	–	–
O=C1CCC(N2Cc3cc(NC(=O)CCCCCCCNCCCn4cc(-c5ccc(Nc6ncc7c(n6)-c6ccc(Cl)cc6C(c6c(F)cccc6F)=NC7)cc5)nn4)ccc3C2=O)C(=O)N1 (stereo not drawn) [UB-180982]	> 1 µM	> 1 µM	0.1 to 1 µM	–	–	–
O=C1CCC(N2Cc3c(NC(=O)CCCCCCCNCCCn4cc(-c5ccc(Nc6ncc7c(n6)-c6ccc(Cl)cc6C(c6c(F)cccc6F)=NC7)cc5)nn4)cccc3C2=O)C(=O)N1 (stereo not drawn) [UB-180987]	> 1 µM	> 1 µM	> 1 µM	–	–	–
O=C1CCC(N2Cc3c(NC(=O)CCCCCCCN[C@H]4CC[C@@H](n5cc(-c6ccc(Nc7ncc8c(n7)-c7ccc(Cl)cc7C(c7c(F)cccc7F)=NC8)cc6)nn5)CC4)cccc3C2=O)C(=O)N1 (stereo partly drawn) [UB-180988]	> 1 µM	> 1 µM	> 1 µM	–	–	–
O=C1CCC(N2Cc3cc(NC(=O)CCCCCCCN[C@H]4CC[C@@H](n5cc(-c6ccc(Nc7ncc8c(n7)-c7ccc(Cl)cc7C(c7c(F)cccc7F)=NC8)cc6)nn5)CC4)ccc3C2=O)C(=O)N1 (stereo partly drawn) [UB-180989]	> 1 µM	> 1 µM	> 1 µM	–	–	–
O=C1CCC(N2Cc3c(NC(=O)CCCCCCCCCNCCn4cc(-c5ccc(Nc6ncc7c(n6)-c6ccc(Cl)cc6C(c6c(F)cccc6F)=NC7)cc5)nn4)cccc3C2=O)C(=O)N1 (stereo not drawn) [UB-180990]	> 1 µM	> 1 µM	0.1 to 1 µM	–	–	–
O=C1CCC(N2Cc3cc(NC(=O)CCNCCOCCOCCn4cc(-c5ccc(Nc6ncc7c(n6)-c6ccc(Cl)cc6C(c6c(F)cccc6F)=NC7)cc5)nn4)ccc3C2=O)C(=O)N1 (stereo not drawn) [UB-180991]	> 1 µM	> 1 µM	0.1 to 1 µM	–	–	–
O=C1CCC(N2Cc3cc(NC(=O)CCCCCCCCCNCCn4cc([C@]5(Cc6cccc(Nc7nccs7)n6)CC[C@@H](Oc6cccc(Cl)c6F)CC5)nn4)ccc3C2=O)C(=O)N1 (stereo partly drawn) [UB-180995]	> 1 µM	> 1 µM	> 1 µM	–	–	–
O=C1CCC(N2Cc3c(NC(=O)CCCCCCCCCN[C@H]4CC[C@@H](n5cc(-c6ccc(Nc7ncc8c(n7)-c7ccc(Cl)cc7C(c7c(F)cccc7F)=NC8)cc6)nn5)CC4)cccc3C2=O)C(=O)N1 (stereo partly drawn) [UB-180997]	–	–	–	> 1 µM	> 1 µM	> 1 µM
O=C1CCC(N2Cc3cc(NC(=O)CCNCCCOCCCCn4cc([C@]5(Cc6cccc(Nc7nccs7)n6)CC[C@@H](Oc6cccc(Cl)c6F)CC5)nn4)ccc3C2=O)C(=O)N1 (stereo partly drawn) [UB-181001]	> 1 µM	> 1 µM	> 1 µM	–	–	–
O=C1CCC(N2Cc3c(NC(=O)CCCCCCCCCNCCn4cc([C@]5(Cc6cccc(Nc7nccs7)n6)CC[C@@H](Oc6cccc(Cl)c6F)CC5)nn4)cccc3C2=O)C(=O)N1 (stereo partly drawn) [UB-181002]	> 1 µM	> 1 µM	> 1 µM	–	–	–
O=C1CCC(N2Cc3cc(NC(=O)CCOCCOCC(O)COCCn4cc(-c5ccc(Nc6ncc7c(n6)-c6ccc(Cl)cc6C(c6c(F)cccc6F)=NC7)cc5)nn4)ccc3C2=O)C(=O)N1 (stereo not drawn) [UB-181005]	> 1 µM	–	–	–	> 1 µM	> 1 µM
O=C1CCC(N2Cc3cc(NC(=O)CCOCCOCCOCCN[C@H]4CC[C@@H](NC(=O)c5ccc(Nc6ncc7c(n6)-c6ccc(Cl)cc6C(c6c(F)cccc6F)=NC7)cc5)CC4)ccc3C2=O)C(=O)N1 (stereo partly drawn) [UB-181006]	> 1 µM	> 1 µM	> 1 µM	–	–	–
NC(COCCCCCCCC(=O)Nc1ccc2c(c1)CN(C1CCC(=O)NC1=O)C2=O)Cn1cc(-c2ccc(Nc3ncc4c(n3)-c3ccc(Cl)cc3C(c3c(F)cccc3F)=NC4)cc2)nn1 (stereo not drawn) [UB-181007]	0.1 to 1 µM	> 1 µM	0.1 to 1 µM	–	–	–
O=C1CCC(N2Cc3cc(C#CCCNCCOCCOCCn4cc(-c5ccc(Nc6ncc7c(n6)-c6ccc(Cl)cc6C(c6c(F)cccc6F)=NC7)cc5)nn4)ccc3C2=O)C(=O)N1 (stereo not drawn) [UB-181012]	> 1 µM	> 1 µM	0.1 to 1 µM	–	–	–
O=C1CCC(N2Cc3c(C#CCCNCCOCCOCCNC(=O)[C@]4(Cc5cccc(Nc6nccs6)n5)CC[C@@H](Oc5cccc(Cl)c5F)CC4)cccc3C2=O)C(=O)N1 (stereo partly drawn) [UB-181014]	> 1 µM	> 1 µM	0.1 to 1 µM	–	–	–
O=C1CCC(N2Cc3cc(C#CCCNCCOCCOCCNC(=O)[C@]4(Cc5cccc(Nc6nccs6)n5)CC[C@@H](Oc5cccc(Cl)c5F)CC4)ccc3C2=O)C(=O)N1 (stereo partly drawn) [UB-181015]	> 1 µM	> 1 µM	0.1 to 1 µM	–	–	–
